Experimental data published in patent publication US7605272B2, “IGF-1R inhibitor” (Kyowa Hakko Kirin Co., Ltd., priority 2005, dated 2009).

Key:
IGF-1R = target: T1, IGF-1R (Homo sapiens, UniProt P08069); test: IGF-1R inhibitory activity (kinase reaction, time-resolved fluoroimmunoassay); format: biochemical; details: IGF-1R active recombinant enzyme, test compound 10 μmol/L
T1 construct: purchased Upstate Co. 14-465
Method in brief: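 Compounds were tested at a single 10 μmol/L concentration. Each was incubated with recombinant IGF-1R (200 μg/L), 10 mmol/L ATP, MgCl2/MnCl2 and Na3VO4 (pH 7.5) on immobilized poly(Glu-Tyr) peptide for 30 min at 24° C. Eu-anti-phosphotyrosine time-resolved fluorescence (340/615 nm) gave relative activity against no-compound and no-enzyme wells, reported as % inhibition.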

KMS-11 = test: Cytostatic activity on human multiple myeloma cell line KMS-11 (WST-1); format: cell-based; details: 1 μmol/L, 72 hours; for inhibition at 1 µM: Homo sapiens, KMS-11, 72 h, read-out: cytostatic rate (%) KMS-11 (1 μmol/L)
Method in brief: (§1)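 Cytostatic rate is 100 minus % growth relative to DMSO-only wells (100%) and blank wells (0%), read by WST-1 absorbance at 450/690 nm after 2 h. Compound at 1 or 10 μmol/L final was applied for 72 h at 37 °C to cells seeded 24 h earlier.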

NCI-H929 = test: Cytostatic activity on human multiple myeloma cell line NCI-H929 (WST-1); format: cell-based; details: 1 μmol/L, 72 hours; for inhibition at 1 µM: Homo sapiens, NCI-H929, 72 h, read-out: cytostatic rate (%) H929 (1 μmol/L)
Method in brief: as §1

T1 sequence (P08069 959-1367 limits assumed): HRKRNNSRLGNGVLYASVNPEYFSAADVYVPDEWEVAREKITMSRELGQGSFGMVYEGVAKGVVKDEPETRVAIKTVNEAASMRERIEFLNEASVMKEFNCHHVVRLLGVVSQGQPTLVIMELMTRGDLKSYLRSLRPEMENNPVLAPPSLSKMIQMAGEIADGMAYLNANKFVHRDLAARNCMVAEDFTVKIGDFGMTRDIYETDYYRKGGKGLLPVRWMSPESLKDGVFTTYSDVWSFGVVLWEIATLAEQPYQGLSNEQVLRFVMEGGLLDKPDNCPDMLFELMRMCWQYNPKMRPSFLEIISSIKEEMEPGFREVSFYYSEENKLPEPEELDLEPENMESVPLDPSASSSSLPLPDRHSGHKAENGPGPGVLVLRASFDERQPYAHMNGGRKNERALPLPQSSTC

Row | SMILES | inhibition at 10 µM (IGF-1R) [%] | inhibitory activity (%) at 10 μmol/L (IGF-1R) [%] | inhibition at 1 µM (KMS-11) [%] | inhibition at 1 µM (NCI-H929) [%] | cytostatic rate (%) KMS-11 (1 μmol/L) (KMS-11) [%] | cytostatic rate (%) H929 (1 μmol/L) (NCI-H929) [%]
1 | Cc1ccsc1C(=O)Nc1cc(CN2CCN(C(=O)CO)CC2)ccc1/C=C/c1n[nH]c2ccccc12 [Compound 248, (E)-N-{2-[2-(1H-indazol-3-yl)vinyl]-5-[4-(2-hydroxyacetyl)piperazin-1-ylmethyl]phenyl}-3-methylthiophene-2-carboxamide] | 100 |  | 113 | 114 |  | 
2 | COCCN(CCN1CCOCC1)C(=O)c1ccc(/C=C/c2n[nH]c3ccccc23)c(NC(=O)c2sccc2C)c1 [Compound 249, (E)-N-(2-[2-(1H-indazol-3-yl)vinyl]-5-{N-(2-methoxyethyl)-N-[2-(morpholin-4-yl)ethyl]carbamoyl}phenyl)-3-methylthiophene-2-carboxamide] | 100 |  | 113 | 113 |  | 
3 | Cc1ccsc1C(=O)Nc1cc(OCCN2CCOCC2)ccc1/C=C/c1n[nH]c2ccccc12 [Compound 251, (E)-N-{2-[2-(1H-indazol-3-yl)vinyl]-5-[2-(morpholin-4-yl)ethoxy]phenyl}-3-methylthiophene-2-carboxamide] | 102 |  | 114 | 112 |  | 
4 | COCCN(C)Cc1ccc(/C=C/c2n[nH]c3ccccc23)c(NC(=O)c2sccc2C)c1 [Compound 252, (E)-N-{2-[2-(1H-indazol-3-yl)vinyl]-5-[N-(2-methoxyethyl)methylaminomethyl]phenyl}-3-methylthiophene-2-carboxamide] | 101 |  | 113 | 120 |  | 
5 | Nc1cccc2c1C(=O)N(c1ccc(F)cc1/C=C/c1n[nH]c3ccccc13)C2=O [Compound 254, (E)-4-amino-2-{4-fluoro-2-[2-(1H-indazol-3-yl)vinyl]phenyl}isoindole-1,3-dione] | 99.5 |  | 81.2 | 116 |  | 
6 | CCN(CC)CCN(CCO)C(=O)c1ccc(/C=C/c2n[nH]c3ccccc23)c(NC(=O)c2sccc2C)c1 [Compound 255, (E)-N-(5-{N-[2-(diethylamino)ethyl]-N-(2-hydroxyethyl)carbamoyl}-2-[2-(1H-indazol-3-yl)vinyl]phenyl)-3-methylthiophene-2-carboxamide] | 100 |  | 97.6 | 121 |  | 
7 | COCCCN(CCO)C(=O)c1ccc(/C=C/c2n[nH]c3ccccc23)c(NC(=O)c2sccc2C)c1 [Compound 256, (E)-N-{5-[N-(2-hydroxyethyl)-N-(3-methoxypropyl)carbamoyl]-2-[2-(1H-indazol-3-yl)vinyl]phenyl}-3-methylthiophene-2-carboxamide] | 100 |  | 105 | 122 |  | 
8 | Cc1ccsc1C(=O)Nc1cc(C(=O)N(CCO)CCN2CCOCC2)ccc1/C=C/c1n[nH]c2ccccc12 [Compound 259, (E)-N-{5-[N-(2-hydroxyethyl)-N-(2-morpholinoethyl)carbamoyl]-2-[2-(1H-indazol-3-yl)vinyl]phenyl}-3-methylthiophene-2-carboxamide] | 102 |  | 104 | 118 |  | 
9 | COCCN(C)C(=O)c1ccc(/C=C/c2n[nH]c3ccccc23)c(NC(=O)c2sccc2C)c1 [Compound 260, (E)-N-{2-[2-(1H-indazol-3-yl)vinyl]-5-[N-(2-methoxyethyl)-N-methylcarbamoyl]phenyl}-3-methylthiophene-2-carboxamide] | 102 |  | 118 | 119 |  | 
10 | COc1ccc(/C=C/c2n[nH]c3ccccc23)c(NC(=O)c2sccc2C)c1OC [Compound 261, (E)-N-{6-[2-(1H-indazol-3-yl)vinyl]-2,3-dimethoxyphenyl}-3-methylthiophene-2-carboxamide] | 101 |  | 121 | 115 |  | 
11 | Cc1ccsc1C(=O)Nc1cc(N2CCN(C)CC2)ccc1/C=C/c1n[nH]c2ccccc12 [Compound 262, (E)-N-{2-[2-(1H-indazol-3-yl)vinyl]-5-(4-methylpiperazin-1-yl)phenyl}-3-methylthiophene-2-carboxamide] | 103 |  | 119 | 119 |  | 
12 | Cc1ccsc1C(=O)Nc1cc(CNC2CCNCC2)ccc1/C=C/c1n[nH]c2ccccc12 [Compound 264, (E)-N-{2-[2-(1H-indazol-3-yl)vinyl]-5-(piperidin-4-ylaminomethyl)phenyl}-3-methylthiophene-2-carboxamide] | 102 |  | 58.5 | 111 |  | 
13 | Cc1ccsc1C(=O)Nc1cc(F)ccc1/C=C/c1n[nH]c2ccccc12 [Compound 265, (E)-N-{5-fluoro-2-[2-(1H-indazol-3-yl)vinyl]phenyl}-3-methylthiophene-2-carboxamide] | 98.4 |  | 96.9 | 115 |  | 
14 | COc1c(OCCN2CCOCC2)ccc(/C=C/c2n[nH]c3ccccc23)c1NC(=O)c1sccc1C [Compound 266, (E)-N-{6-[2-(1H-indazol-3-yl)vinyl]-2-methoxy-3-(2-morpholinoethoxy)phenyl}-3-methylthiophene-2-carboxamide] | 103 |  | 131 | 118 |  | 
15 | COCCN(CCN1CCOCC1)c1ccc(/C=C/c2n[nH]c3ccccc23)c(NC(=O)c2sccc2C)c1 [Compound 267, (E)-N-{2-[2-(1H-indazol-3-yl)vinyl]-5-[N-(2-methoxyethyl)-2-(morpholinoethyl)amino]phenyl}-3-methylthiophene-2-carboxamide] |  | 100.3 |  |  | 133.8 | 118.1

Continued, in another order:

Row | inhibition at 10 µM (IGF-1R) [%] | inhibitory activity (%) at 10 μmol/L (IGF-1R) [%] | SMILES | inhibition at 1 µM (KMS-11) [%] | inhibition at 1 µM (NCI-H929) [%] | cytostatic rate (%) KMS-11 (1 μmol/L) (KMS-11) [%] | cytostatic rate (%) H929 (1 μmol/L) (NCI-H929) [%]
16 | 101 |  | Cc1ccsc1C(=O)Nc1cc(CN2CCN(CCC#N)CC2)ccc1/C=C/c1n[nH]c2ccccc12 [Compound 268, (E)-N-{5-[4-(2-cyanoethyl)piperazin-1-ylmethyl]-2-[2-(1H-indazol-3-yl)vinyl]phenyl}-3-methylthiophene-2-carboxamide] | 129 | 118 |  | 
17 | 101 |  | CC(=O)N1CCN(Cc2ccc(/C=C/c3n[nH]c4ccccc34)c(NC(=O)c3sccc3C)c2)CC1 [Compound 269, (E)-N-{5-(4-acetylpiperazin-1-ylmethyl)-2-[2-(1H-indazol-3-yl)vinyl]phenyl}-3-methylthiophene-2-carboxamide] | 132 | 119 |  | 
18 | 100 |  | Cc1ccsc1C(=O)Nc1cc(CN2CCN(C=O)CC2)ccc1/C=C/c1n[nH]c2ccccc12 [Compound 270, (E)-N-{5-(4-formylpiperazin-1-ylmethyl)-2-[2-(1H-indazol-3-yl)vinyl]phenyl}-3-methylthiophene-2-carboxamide] | 129 | 121 |  | 
19 | 102 |  | COCCN1CCN(Cc2ccc(/C=C/c3n[nH]c4ccccc34)c(NC(=O)c3sccc3C)c2)CC1 [Compound 271, (E)-N-{2-[2-(1H-indazol-3-yl)vinyl]-5-[4-(2-methoxyethyl)piperazin-1-ylmethyl]phenyl}-3-methylthiophene-2-carboxamide] | 123 | 119 |  | 
20 | 101 |  | Cc1ccsc1C(=O)Nc1cc(N2CCN(S(C)(=O)=O)CC2)ccc1/C=C/c1n[nH]c2ccccc12 [Compound 272, (E)-N-{2-[2-(1H-indazol-3-yl)vinyl]-5-(4-methanesulfonylpiperazin-1-yl)phenyl}-3-methylthiophene-2-carboxamide] | 135 | 120 |  | 
21 | 104 |  | Cc1ccsc1C(=O)Nc1cc(N2CCN(CCO)CC2)ccc1/C=C/c1n[nH]c2ccccc12 [Compound 273, (E)-N-{5-[4-(2-hydroxyethyl)piperazin-1-yl]-2-[2-(1H-indazol-3-yl)vinyl]phenyl}-3-methylthiophene-2-carboxamide] | 111 | 115 |  | 
22 | 104 |  | Cc1ccsc1C(=O)Nc1cc(N2CCNCC2)ccc1/C=C/c1n[nH]c2ccccc12 [Compound 274, (E)-N-{2-[2-(1H-indazol-3-yl)vinyl]-5-piperazin-1-ylphenyl}-3-methylthiophene-2-carboxamide] | 108 | 114 |  | 
23 | 98.6 |  | COCCOc1ccc(/C=C/c2n[nH]c3ccccc23)c(NC(=O)c2sccc2C)c1 [Compound 275, (E)-N-{2-[2-(1H-indazol-3-yl)vinyl]-5-(2-methoxyethoxy)phenyl}-3-methylthiophene-2-carboxamide] | 116 | 118 |  | 
24 | 99.5 |  | Cc1ccsc1C(=O)Nc1cc(CN2CCN(CCCO)CC2)ccc1/C=C/c1n[nH]c2ccccc12 [Compound 277, (E)-N-{5-[4-(3-hydroxypropyl)piperazin-1-ylmethyl]-2-[2-(1H-indazol-3-yl)vinyl]phenyl}-3-methylthiophene-2-carboxamide] | 107 | 119 |  | 
25 | 98.2 |  | COCCN1CCN(c2ccc(/C=C/c3n[nH]c4ccccc34)c(NC(=O)c3sccc3C)c2)CC1 [Compound 279, (E)-N-{2-[2-(1H-indazol-3-yl)vinyl]-5-[4-(2-methoxyethyl)piperazin-1-yl]phenyl}-3-methylthiophene-2-carboxamide] | 111 | 112 |  | 
